The record followed here is ChEMBL document CHEMBL1128846, “Synthesis and pharmacological activity of conformationally restricted, acetylenic retinoid analogs” (Bioorg Med Chem Lett, 1995).

Each structure is given as a SMILES string. pEC50: −log10 of the molar value. Some results are limits rather than exact numbers.

The target of assay [1] is T1, Retinoic acid receptor beta (Homo sapiens, UniProt P10826).
T1 sequence (P10826 whole entry): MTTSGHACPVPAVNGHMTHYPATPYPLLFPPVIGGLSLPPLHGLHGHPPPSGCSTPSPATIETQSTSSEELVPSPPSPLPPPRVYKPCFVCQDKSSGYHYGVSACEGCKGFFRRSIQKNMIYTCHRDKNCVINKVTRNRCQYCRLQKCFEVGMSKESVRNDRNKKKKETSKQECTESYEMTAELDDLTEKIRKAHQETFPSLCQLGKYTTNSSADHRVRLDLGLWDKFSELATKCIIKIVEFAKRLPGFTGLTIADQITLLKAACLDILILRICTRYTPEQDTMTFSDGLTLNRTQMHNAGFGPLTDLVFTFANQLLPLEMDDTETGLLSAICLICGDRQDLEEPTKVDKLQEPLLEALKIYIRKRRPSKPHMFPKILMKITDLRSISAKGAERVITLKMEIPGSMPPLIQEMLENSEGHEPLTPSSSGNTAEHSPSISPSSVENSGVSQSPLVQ
As to the kind of experiment: (§1) Transcriptional activation of retinoic acid receptor RAR beta.

Assay [2] addresses T2, Retinoic acid receptor alpha (Homo sapiens, UniProt P10276).
T2 sequence (P10276 whole entry): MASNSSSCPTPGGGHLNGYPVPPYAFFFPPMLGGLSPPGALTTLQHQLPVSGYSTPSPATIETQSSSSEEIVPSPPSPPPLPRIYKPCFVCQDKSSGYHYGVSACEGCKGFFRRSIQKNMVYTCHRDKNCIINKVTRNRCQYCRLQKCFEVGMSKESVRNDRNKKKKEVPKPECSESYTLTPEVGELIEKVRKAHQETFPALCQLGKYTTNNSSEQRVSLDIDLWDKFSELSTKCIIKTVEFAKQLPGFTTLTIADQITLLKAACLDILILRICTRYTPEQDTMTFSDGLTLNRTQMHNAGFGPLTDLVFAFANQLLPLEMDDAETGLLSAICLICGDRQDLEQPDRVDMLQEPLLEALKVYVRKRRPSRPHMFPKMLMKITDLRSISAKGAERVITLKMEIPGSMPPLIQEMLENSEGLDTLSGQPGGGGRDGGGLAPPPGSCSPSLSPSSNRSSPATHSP
As to the kind of experiment: Transcriptional activation of retinoic acid receptor RAR alpha; not active.

The next assay concerns Mus musculus. Briefly: In vivo inhibition of TPA-induced ornithine decarboxylase (ODC) activity in hairless mouse skin. The assay is classed as functional.
Assay [3] has as its target T3, Retinoic acid receptor RXR-alpha (Homo sapiens, UniProt P19793).
T3 sequence (P19793 whole entry): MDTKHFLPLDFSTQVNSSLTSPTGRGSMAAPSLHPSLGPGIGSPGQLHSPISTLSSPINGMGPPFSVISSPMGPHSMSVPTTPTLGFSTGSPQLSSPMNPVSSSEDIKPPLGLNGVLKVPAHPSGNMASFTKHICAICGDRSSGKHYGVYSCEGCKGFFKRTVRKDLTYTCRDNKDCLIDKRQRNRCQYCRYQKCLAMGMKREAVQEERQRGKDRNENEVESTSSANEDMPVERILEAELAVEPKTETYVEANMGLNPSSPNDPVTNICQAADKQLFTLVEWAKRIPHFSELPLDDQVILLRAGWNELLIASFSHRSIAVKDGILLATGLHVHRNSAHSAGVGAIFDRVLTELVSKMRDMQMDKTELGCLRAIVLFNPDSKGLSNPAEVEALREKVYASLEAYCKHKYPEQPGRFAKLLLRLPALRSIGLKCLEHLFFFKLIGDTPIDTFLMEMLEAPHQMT
As to the kind of experiment: Transcriptional activation of retinoid X receptor RXR alpha; not active.

Assay [4] addresses T1, Retinoic acid receptor beta. The assay is described as §1. The source holds these as a separate data set.
Assay [5] addresses T4, Retinoic acid receptor gamma (Homo sapiens, UniProt P13631).
T4 sequence (P13631 whole entry): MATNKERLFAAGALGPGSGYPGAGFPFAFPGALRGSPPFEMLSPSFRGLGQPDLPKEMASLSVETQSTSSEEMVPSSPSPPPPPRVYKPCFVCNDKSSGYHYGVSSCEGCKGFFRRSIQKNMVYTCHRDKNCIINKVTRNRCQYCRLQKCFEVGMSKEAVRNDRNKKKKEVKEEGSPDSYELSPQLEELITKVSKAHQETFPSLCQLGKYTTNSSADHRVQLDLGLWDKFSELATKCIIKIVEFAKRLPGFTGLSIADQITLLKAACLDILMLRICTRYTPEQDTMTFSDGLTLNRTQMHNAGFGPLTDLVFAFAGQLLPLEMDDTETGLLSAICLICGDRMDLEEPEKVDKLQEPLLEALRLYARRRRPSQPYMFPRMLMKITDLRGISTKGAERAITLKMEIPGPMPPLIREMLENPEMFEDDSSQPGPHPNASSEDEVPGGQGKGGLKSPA
Briefly: Transcriptional activation of retinoic acid receptor RAR gamma.

The target of assay [6] is T2, Retinoic acid receptor alpha. As to the kind of experiment: Transcriptional activation of retinoic acid receptor RAR alpha.
The target of assay [7] is T4, Retinoic acid receptor gamma. Briefly: Transcriptional activation of retinoic acid receptor RAR gamma; not active.
Assay [8] deals with T1, Retinoic acid receptor beta. Briefly: Transcriptional activation of retinoic acid receptor RAR beta; not active.

Regarding `CC1=C(C#Cc2ccc3cc(C(=O)O)ccc3c2)C(C)(C)CCC1`, the pEC50 in [1] was 6.03; in assay [2], below 5.00; in assay [3], below 5.00; in assay [4], 6.45. The same compound displayed an IC80 in the assay on Mus musculus of 215 nmol.

Turning to `CCOC(=O)c1ccc2cc(C#CC3=C(C)CCCC3(C)C)ccc2c1`, the IC80 with Mus musculus is 131 nmol.

As to `CC1=C(/C=C/C#Cc2ccc(C(=O)O)cc2)C(C)(C)CCC1`, the negative logarithm of the EC50 (pEC50) in assay [5] is 8.00; in assay [6] it was 6.22; in assay [3], 5.00; in assay [4], 8.70. The IC80 in the assay on Mus musculus came to 0.46 nmol.

In the assay on Mus musculus, `CCOC(=O)c1cccc(C#C/C=C/C2=C(C)CCCC2(C)C)c1` returned an IC80 above 1000 nmol.

On to `CCOC(=O)c1ccc(C#C/C=C/C2=C(C)CCCC2(C)C)cc1`, for which the IC80 in the assay with Mus musculus is 1.3 nmol.

Turning to `CC1=C(/C=C/C#Cc2ccccc2C(=O)O)C(C)(C)CCC1`, the pEC50 in [2], in assay [7], in assay [8] and in [3] was below 5.00 each time. The IC80 in the assay with Mus musculus is above 1000 nmol.

In [3], `C/C(=C\c1ccc(C(=O)O)cc1)c1ccc2c(c1)C(C)(C)CCC2(C)C` had a pEC50 of 5.00.

As for `CC1=C(/C=C/C#Cc2ccc(C(=O)O)cn2)C(C)(C)CCC1`, the pEC50 in assay [5] was below 7.82; in assay [2], below 5.00; in assay [4], below 8.30. In the assay on Mus musculus, this compound registered an IC80 of 14.8 nmol.

For the compound `CCOC(=O)c1ccc(C#C/C=C/C2=C(C)CCCC2(C)C)nc1`, the IC80 in the assay with Mus musculus is 5.3 nmol.

On to `CCOC(=O)c1ccc(C#C/C=C/C2=C(C)CCCC2(C)C)o1`, for which, in the assay on Mus musculus, the IC80 is above 300 nmol.

The compound `CCOC(=O)c1ccc(C#C/C=C/C2=C(C)CCCC2(C)C)s1` had an IC80 in the assay with Mus musculus of 30 nmol.

`CCOC(=O)c1ccccc1C#C/C=C/C1=C(C)CCCC1(C)C`: the IC80 in the assay on Mus musculus was above 1000 nmol.

Turning to `CC1=C(/C=C/C#Cc2cccc(C(=O)O)c2)C(C)(C)CCC1`, the pEC50 in assay [2], in assay [7], in assay [8] and in assay [3] was below 5.00 in each case. The IC80 in the assay with Mus musculus was 890 nmol.

The term pEC50 denotes −log10 of the EC50, conventionally taken in molar units. A higher pEC50 goes with a low EC50.
